Key:
human DP2 receptor = molecular target: T1, human DP2 receptor (Homo sapiens, UniProt Q9Y5Y4); assay: DP2/CRTH2 radioligand binding assay ([3H]PGD2); details: membranes of HEK293 cells expressing recombinant human DP2, 1 nM [3H]PGD2; read-out: hDP2
T1 construct: expressed in transfected cells
T1 sequence (Q9Y5Y4 1-395): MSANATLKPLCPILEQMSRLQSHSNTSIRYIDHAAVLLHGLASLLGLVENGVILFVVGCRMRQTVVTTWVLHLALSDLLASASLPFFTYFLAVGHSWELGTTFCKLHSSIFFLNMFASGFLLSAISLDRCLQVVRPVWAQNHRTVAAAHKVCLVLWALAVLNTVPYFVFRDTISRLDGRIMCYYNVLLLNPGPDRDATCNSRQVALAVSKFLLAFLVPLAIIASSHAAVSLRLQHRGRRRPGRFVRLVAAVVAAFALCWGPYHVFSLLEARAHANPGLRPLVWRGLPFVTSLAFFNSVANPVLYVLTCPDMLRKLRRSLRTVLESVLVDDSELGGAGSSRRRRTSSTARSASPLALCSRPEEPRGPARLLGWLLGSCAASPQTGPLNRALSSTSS
Procedure: The ability of a compound to bind to the human DP2 receptor is assessed via a radioligand binding assay using [^3H]PGD2. HEK293 cells stably expressing recombinant human DP2 are resuspended in 10 mM Hepes, 7.4 containing 1 mM DTT, lysed and centrifuged at 75,000×g to pellet the membranes. The membranes are resuspended in 10 mM Hepes, 7.4 containing 1 mM DTF and 10% glycerol to approximately 5 mg protein/ml. Membranes (2-10 […]) are incubated in 96-well plates with 1 nM [^3H]PGD2 and test compound in Assay Buffer (50 mM Hepes, 10 mM MnCl2, 1 mM EDTA, plus or minus 0.2% human serum albumin, pH 7.4) for 60 minutes at room temperature. The reactions are terminated by rapid filtration through Whatman GF/C glass fibre filter plates. The filter plates were pre-soaked in 0.33% polythylenimine for 30 minutes at room temperature then washed in Wash Buffer (50 mM Hepes, 0.5 M NaCl pH 7.4) prior to harvesting. After harvesting, the filter plates are washed 3 times with 1 ml cold Wash Buffer then dried. Scintillant is then added to the plates and the radioactivity retained on the filters is determined on a Packard TopCount (Perkin Elmer). Specific binding is determined as total radioactive binding minus non-specific binding in the presence of 10 μM PGD2. IC50s were determined using GraphPad prism analysis of drug titration curves.

human DP1 receptor = molecular target: T2, human DP1 receptor (Homo sapiens, UniProt Q13258); assay: DP1 radioligand membrane binding assay ([3H]BWA868C); details: human platelet membranes, 2 nM [3H]BWA868C; read-out: hDP1
T2 construct: tissue Biological Specialty Corporation; host or cells: human platelets, membrane preparation
T2 sequence (Q13258 1-359): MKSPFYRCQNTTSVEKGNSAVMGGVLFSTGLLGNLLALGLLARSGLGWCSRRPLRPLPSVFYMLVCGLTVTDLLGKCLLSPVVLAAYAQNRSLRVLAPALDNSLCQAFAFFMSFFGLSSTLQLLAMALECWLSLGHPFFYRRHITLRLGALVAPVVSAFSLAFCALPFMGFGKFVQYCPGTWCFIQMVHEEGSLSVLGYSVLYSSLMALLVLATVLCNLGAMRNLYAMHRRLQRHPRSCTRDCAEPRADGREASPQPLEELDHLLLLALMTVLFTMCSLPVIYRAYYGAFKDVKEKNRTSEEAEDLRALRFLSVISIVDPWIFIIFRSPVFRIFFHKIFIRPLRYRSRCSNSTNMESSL
Procedure: The ability of a compound to bind to the human DP1 receptor was evaluated via a radioligand membrane binding assay using the DP1 selective synthetic ligand [^3H]BWA868C. Packed human platelets (Biological Specialty Corporation), were resuspended in 6 volumes of Hepes/HBSS buffer (10 mM Hepes, 1 mM DTT in Hanks Balanced Salt Solution (HBSS), lysed and centrifuged at 75,000×g to pellet the membranes. Membranes were resuspended in Hepes/HBSS buffer to approximately 12 mg protein/ml. Membranes (20 μg protein/well) are incubated in 96-well plates with 2 nM [^3H]BWA868C and test compound in Assay Buffer (50 mM Hepes, 10 mM MnCl2, 1 mM EDTA, plus or minus 0.2% human serum albumin, pH 7.4) for 60 minutes at room temperature. The reactions are terminated by rapid filtration through Whatman GF/C glass fibre filter plates. The filter plates were pre-soaked in 0.33% polyethylenimine for 30 minutes at room temperature then washed in Wash Buffer (50 mM Hepes, 0.5 M NaCl pH 7.4) prior to harvesting. After harvesting, the filter plates are washed 3 times with 1 ml cold Wash Buffer then dried. Scintillant is then added to the plates and the radioactivity retained on the filters is determined on a Packard TopCount (Perkin Elmer). Specific binding is determined as total radioactive binding minus non-specific binding in the presence of 10 μM BW A868C. IC50s were determined using GraphPad prism analysis of drug titration curves.

For `COc1ccc(CC(=O)O)cc1Oc1ccc(Cl)cc1CS(=O)(=O)Cc1ccccc1` [Compound 1-56, [3-(4-Chloro-2-phenylmethanesulfonylmethyl-phenoxy)-4-methoxy-phenyl]-acetic acid], the IC50 (human DP2 receptor) was less than 300 nM and the IC50 (human DP1 receptor) was greater than 1000 nM.

`O=C(O)Cc1cccc(Oc2ccc(Br)cc2CS(=O)(=O)c2ccccn2)c1` [Compound 1-23, {3-[4-Bromo-2-(pyridine-2-sulfonylmethyl)-phenoxy]-phenyl}-acetic acid] gave an IC50 (human DP2 receptor) of 300 to 1000 nM and an IC50 (human DP1 receptor) greater than 1000 nM.

For `O=C(O)Cc1cccc(Oc2ccc(Br)cc2CSc2ccccn2)c1` [Compound 1-17, {3-[4-Bromo-2-(pyridin-2-ylsulfanylmethyl)-phenoxy]-phenyl}-acetic acid], the IC50 (human DP2 receptor) was 300 to 1000 nM and the IC50 (human DP1 receptor) was 300 to 1000 nM.

In the case of `O=C(O)Cc1cccc(Oc2ccc(Br)cc2C[S+]([O-])c2nccs2)c1` (centres unmarked) [Compound 1-33, {3-[4-Bromo-2-(thiazole-2-sulfinylmethyl)-phenoxy]-phenyl}-acetic acid], the IC50 (human DP2 receptor) is reported as less than 300 nM and the IC50 (human DP1 receptor) is reported as greater than 1000 nM.

For `Cc1nnc(S(=O)(=O)Cc2cc(Br)ccc2Oc2cccc(CC(=O)O)c2)s1` [Compound 1-26, {3-[4-Bromo-2-(5-methyl-[1,3,4]thiadiazole-2-sulfonylmethyl)-phenoxy]-phenyl}-acetic acid], the IC50 (human DP2 receptor) was less than 300 nM and the IC50 (human DP1 receptor) was greater than 1000 nM.

`O=C(O)Cc1cccc(Oc2ccc(Br)cc2C[S+]([O-])Cc2ccccc2)c1` (centres unmarked) [Compound 1-29, [3-(4-Bromo-2-phenylmethanesulfinylmethyl-phenoxy)-phenyl]-acetic acid] was tested, and the IC50 (human DP2 receptor) was less than 300 nM and the IC50 (human DP1 receptor) was greater than 1000 nM.

`COc1ccc(CC(=O)O)cc1Oc1ccc(C(F)(F)F)cc1CSc1ccccc1` [Compound 1-4, [4-Methoxy-3-(2-phenylsulfanylmethyl-4-trifluoromethyl-phenoxy)-phenyl]-acetic acid] was tested, and the IC50 (human DP2 receptor) was less than 300 nM and the IC50 (human DP1 receptor) was greater than 1000 nM.

Work on `COc1ccc(CC(=O)O)cc1Oc1ccc(C(F)(F)F)cc1C[S+]([O-])C(C)(C)C` (centres unmarked) [Compound 1-9, {4-Methoxy-3-[2-(2-methyl-propane-2-sulfinylmethyl)-4-trifluoromethyl-phenoxy]-phenyl}-acetic acid] yielded an IC50 (human DP2 receptor) greater than 1000 nM and an IC50 (human DP1 receptor) greater than 1000 nM.

`COc1ccc(CC(=O)O)cc1Oc1ccc(C(F)(F)F)cc1CSCC(F)(F)F` [Compound 1-2, {4-Methoxy-3-[2-(2,2,2-trifluoro-ethylsulfanylmethyl)-4-trifluoromethyl-phenoxy]-phenyl}-acetic acid] was tested, and the IC50 (human DP2 receptor) was less than 300 nM and the IC50 (human DP1 receptor) was greater than 1000 nM.

`CS(=O)(=O)c1ccc(-c2ccc(Oc3cccc(CC(=O)O)c3)c(CSc3ccccc3)c2)cc1` [Compound 1-58, [3-(4′-Methanesulfonyl-3-phenylsulfanylmethyl-biphenyl-4-yloxy)-phenyl]-acetic acid] was tested, and the IC50 (human DP2 receptor) was 300 to 1000 nM and the IC50 (human DP1 receptor) was less than 300 nM.

In the case of `Cc1nnc(SCc2cc(Br)ccc2Oc2cccc(CC(=O)O)c2)s1` [Compound 1-15, {3-[4-Bromo-2-(5-methyl-[1,3,4]thiadiazol-2-ylsulfanylmethyl)-phenoxy]-phenyl}-acetic acid], the IC50 (human DP2 receptor) is reported as less than 300 nM and the IC50 (human DP1 receptor) is reported as greater than 1000 nM.

For `O=C(O)Cc1cccc(Oc2ccc(Br)cc2C[S+]([O-])c2ccccc2)c1` (centres unmarked) [Compound 1-28, [3-(2-Benzenesulfinylmethyl-4-bromo-phenoxy)-phenyl]-acetic acid], the IC50 (human DP2 receptor) was less than 300 nM and the IC50 (human DP1 receptor) was greater than 1000 nM.

`Cc1nnc([S+]([O-])Cc2cc(Br)ccc2Oc2cccc(CC(=O)O)c2)s1` (centres unmarked) [Compound 1-34, {3-[4-Bromo-2-(5-methyl-[1,3,4]thiadiazole-2-sulfinylmethyl)-phenoxy]-phenyl}-acetic acid] gave an IC50 (human DP2 receptor) of less than 300 nM and an IC50 (human DP1 receptor) greater than 1000 nM.

In the case of `CN(C)CCS(=O)(=O)Cc1cc(Br)ccc1Oc1cccc(CC(=O)O)c1` [Compound 1-27, {3-[4-Bromo-2-(2-dimethylamino-ethanesulfonylmethyl)-phenoxy]-phenyl}-acetic acid], the IC50 (human DP2 receptor) is reported as less than 300 nM and the IC50 (human DP1 receptor) is reported as greater than 1000 nM.

In the case of `O=C(O)Cc1cccc(Oc2ccc(Br)cc2C[S+]([O-])CC(=O)O)c1` (centres unmarked) [Compound 1-36, [3-(4-Bromo-2-carboxymethanesulfinylmethyl-phenoxy)-phenyl]-acetic acid], the IC50 (human DP2 receptor) is reported as greater than 1000 nM and the IC50 (human DP1 receptor) is reported as greater than 1000 nM.

Work on `O=C(O)Cc1cccc(Oc2ccc(Br)cc2CS(=O)(=O)c2ccccc2)c1` [Compound 1-20, [3-(2-Benzenesulfonylmethyl-4-bromo-phenoxy)-phenyl]-acetic acid] yielded an IC50 (human DP2 receptor) of less than 300 nM and an IC50 (human DP1 receptor) greater than 1000 nM.

`O=C(O)Cc1cccc(Oc2ccc(Br)cc2CS(=O)(=O)c2ccc3ccccc3n2)c1` [Compound 1-24, {3-[4-Bromo-2-(quinoline-2-sulfonylmethyl)-phenoxy]-phenyl}-acetic acid] was tested, and the IC50 (human DP2 receptor) was greater than 1000 nM and the IC50 (human DP1 receptor) was greater than 1000 nM.

`COc1ccc(CC(=O)O)cc1Oc1ccc(C(F)(F)F)cc1C[S+]([O-])c1ccccc1` (centres unmarked) [Compound 1-10, [3-(2-Benzenesulfinylmethyl-4-trifluoromethyl-phenoxy)-4-methoxy-phenyl]-acetic acid] gave an IC50 (human DP2 receptor) of less than 300 nM and an IC50 (human DP1 receptor) greater than 1000 nM.

`COc1ccc(CC(=O)O)cc1Oc1ccc(C(F)(F)F)cc1CSCCc1ccccc1` [Compound 1-1, [4-Methoxy-3-(2-phenethylsulfanylmethyl-4-trifluoromethyl-phenoxy)-phenyl]-acetic acid] was tested, and the IC50 (human DP2 receptor) was less than 300 nM and the IC50 (human DP1 receptor) was greater than 1000 nM.

`O=C(O)CSCc1cc(Br)ccc1Oc1cccc(CC(=O)O)c1` [Compound 1-19, [3-(4-Bromo-2-carboxymethylsulfanylmethyl-phenoxy)-phenyl]-acetic acid] was tested, and the IC50 (human DP2 receptor) was greater than 1000 nM and the IC50 (human DP1 receptor) was greater than 1000 nM.

`O=C(O)Cc1cccc(Oc2ccc(Br)cc2CS(=O)(=O)Cc2ccccc2)c1` [Compound 1-21, [3-(4-Bromo-2-phenylmethanesulfonylmethyl-phenoxy)-phenyl]-acetic acid] gave an IC50 (human DP2 receptor) of less than 300 nM and an IC50 (human DP1 receptor) of 300 to 1000 nM.

Work on `O=C(O)Cc1cccc(Oc2ccc(Br)cc2CSCc2ccccc2)c1` [Compound 1-12, [3-(2-Benzylsulfanylmethyl-4-bromo-phenoxy)-phenyl]-acetic acid] yielded an IC50 (human DP2 receptor) of less than 300 nM and an IC50 (human DP1 receptor) of less than 300 nM.

Source: patent publication US20110190227A1, “Antagonists of Prostaglandin D2 Receptors” (Amira Pharmaceuticals, Inc., priority 2008, published 2011)
